Target: Indoleamine 2,3-dioxygenase 1 (Homo sapiens, UniProt P14902)
Assay: Inhibition of human IDO1 expressed in HEK293 cells assessed as kynurenine release after 5 hrs by spectrophotometry

Chain of Indoleamine 2,3-dioxygenase 1 (P14902 whole entry): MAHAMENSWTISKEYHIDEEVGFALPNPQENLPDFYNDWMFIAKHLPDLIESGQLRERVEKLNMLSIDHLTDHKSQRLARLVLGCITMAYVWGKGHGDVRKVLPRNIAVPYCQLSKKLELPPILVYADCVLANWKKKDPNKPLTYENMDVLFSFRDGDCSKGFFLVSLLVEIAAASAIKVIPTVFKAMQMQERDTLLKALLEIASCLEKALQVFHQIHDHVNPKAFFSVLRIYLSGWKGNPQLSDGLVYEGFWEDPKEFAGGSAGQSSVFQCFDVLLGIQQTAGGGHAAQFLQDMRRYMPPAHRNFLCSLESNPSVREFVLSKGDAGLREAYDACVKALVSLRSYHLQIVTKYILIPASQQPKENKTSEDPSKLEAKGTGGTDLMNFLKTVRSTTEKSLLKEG

Question: `O=C1c2cc([N+](=O)[O-])ccc2-n2c1nc1ccccc1c2=O` was tested. Which IC50 did it give?
Answer: Its IC50 is 0.018 nM.
